Structures are written as SMILES.

EC50 data for 23 compounds are collected here from patent publication US20230151037A1, “GPR40 AGONISTS” (Kallyope, Inc., priority 2020, published 2023).

The target in the assay is T1, human GPR40 (Homo sapiens, UniProt O14842).
T1 construct: host or cells: CHO-K1
The assay is described as follows: Inositol phosphate accumulation assay (IP1 HTRF) in CHO-K1 cells expressing human GPR40. Format: cell-based. Particulars: 90 min. How it is done: CHO-K1 cells expressing human GPR40 were purchased from DiscoverX (95-1005C2). HEK293 cells expressing mouse FFAR1 were prepared using a mouse FFAR1 carrying plasmid purchased from OriGene Technologies (MR222997). The cells were transfected using Lipofectamine 2000 using manufacturer instructions and stable cell line was established from a single cell using geneticine selection. Assay ready frozen (ARF) cells were prepared and used throughout the study.
The assay was performed in a 384-well plate format using IP1 assay kit from Cis-Bio. ARF cells expressing FFAR1 (mouse and human) were thawed, washed and then plated in the appropriate medium (F12 based medium for CHO hFFAR1 and DMEM based medium for HEK293 mFFAR1-both were supplemented with 10% FBS and penicillin/streptomycin). 20 μL of 3.5×10^5 cells/mL were plated on a Poly D-Lysine coated 384-well white plate. The cells were then incubated for 16 hr at 37° C./5% CO2. After 16 hr the medium was removed and 15 μL of stimulation buffer containing the test compounds was added to the cells. The plates were then incubated for 90 min at 37° C./5% CO2. 5 μL of detection buffer (prepared as described in the IP-one kit) was added to each well and the plates were incubated at RT for 1 hr.
[…] was measured using ClarioSTAR plate reader, calculating the ratio between emissions at 665 nm and 620 nm (HTRF ratio). HTRF ratio for positive (Max) and negative (Min) controls were used to normalize HTRF data and generate values for % activity. EC50 and Max activity values were determined using a standard 4-parameter fit.

T1 sequence (O14842 whole entry): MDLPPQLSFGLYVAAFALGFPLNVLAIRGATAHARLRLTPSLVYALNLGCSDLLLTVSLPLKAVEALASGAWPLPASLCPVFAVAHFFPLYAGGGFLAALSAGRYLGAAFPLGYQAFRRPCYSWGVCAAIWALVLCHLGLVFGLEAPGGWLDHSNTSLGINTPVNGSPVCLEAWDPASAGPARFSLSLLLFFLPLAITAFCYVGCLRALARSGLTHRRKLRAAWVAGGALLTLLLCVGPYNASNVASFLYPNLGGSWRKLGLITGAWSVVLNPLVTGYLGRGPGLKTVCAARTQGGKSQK

The compound `COc1cc(-c2ccc(COc3cccc([C@H](C4CC4)[C@@](C)(F)C(=O)NS(C)(=O)=O)c3)cc2CN(C(C)C)C(C)C)c(F)cn1` [Compound 4, (2R,3S)-3-cyclopropyl-3-(3-((3-((diisopropylamino)methyl)-4-(5-fluoro-2-methoxypyridin-4-yl)benzyl)oxy)phenyl)-2-fluoro-2-methyl-N-(methylsulfonyl)propanamide] registered an EC50 of no more than 50 nM. The compound `COc1cc(-c2ccc(COc3cccc(C(CP(=O)(O)OC)C4CC4)c3)cc2CN(C(C)C)C(C)C)c(F)cn1` (centres unmarked) [Compound 5, methyl hydrogen (2-cyclopropyl-2-(3-((3-((diisopropylamino)methyl)-4-(5-fluoro-2-methoxypyridin-4-yl)benzyl)oxy)phenyl)ethyl)phosphonate] registered a 50% effective concentration (EC50) greater than 1000 nM.

Compound `CCP(=O)(O)CC(c1cccc(OCc2ccc(-c3cc(OC)ncc3F)c(CN(C(C)C)C(C)C)c2)c1)C1CC1` (single isomer, unassigned) [Compound 17, (2-cyclopropyl-2-(3-((3-((diisopropylamino)methyl)-4-(5-fluoro-2-methoxypyridin-4-yl)benzyl)oxy)phenyl)ethyl)(ethyl)phosphinic acid] displayed a half-maximal effective concentration (EC50) greater than 1000 nM.

Compound `COc1cc(-c2ccc(COc3cccc(C(CP(=O)(O)O)C4CC4)c3)cc2CN(C(C)C)C(C)C)c(F)cn1` (centres unmarked) [Compound 8, (2-cyclopropyl-2-(3-((3-((diisopropylamino)methyl)-4-(5-fluoro-2-methoxypyridin-4-yl)benzyl)oxy)phenyl)ethyl)phosphonic acid] returned an EC50 greater than 1000 nM.

`COc1cc(-c2ccc(COc3cc(C(C)CP(C)(=O)O)ccn3)cc2CN(C(C)C)C(C)C)c(F)cn1` (single isomer, unassigned) [Compound 39, ((R)-2-(2-((3-((diisopropylamino)methyl)-4-(5-fluoro-2-methoxypyridin-4-yl)benzyl)oxy)pyridin-4-yl)propyl)(methyl)phosphinic acid or ((S)-2-(2-((3-((diisopropylamino)methyl)-4-(5-fluoro-2-methoxypyridin-4-yl)benzyl)oxy)pyridin-4-yl)propyl)(methyl)phosphinic acid]: the EC50 was greater than 1000 nM. On to `COc1cc(-c2ccc(COc3cccc(C(C)CP(C)(=O)O)c3)cc2[C@@H](OC)C(C)(C)C)c(F)cn1` (stereo partly drawn) [Compound 34, (2-(3-((4-(5-fluoro-2-methoxypyridin-4-yl)-3-((S)-1-methoxy-2,2-dimethylpropyl)benzyl)oxy)phenyl)propyl)(methyl)phosphinic acid], for which the EC50 was no more than 50 nM. As for `COc1ccc(F)c(-c2ccc(COc3cc([C@@H](CP(C)(=O)O)C4CC4)ccn3)cc2[C@@H](OC)C(C)(C)C)c1` [Compound 27, ((S)-2-cyclopropyl-2-(2-((2′-fluoro-5′-methoxy-2-((S)-1-methoxy-2,2-dimethylpropyl)-[1,1′-biphenyl]-4-yl)methoxy)pyridin-4-yl)ethyl)(methyl)phosphinic acid], the EC50 was no more than 50 nM. To `COc1ccc(F)c(-c2ccc(COc3cc(C(C)CP(C)(=O)O)ccn3)cc2[C@@H](OC)C(C)(C)C)c1` (single isomer, unassigned) [Compound 40, ((R)-2-(2-((2′-fluoro-5′-methoxy-2-((S)-1-methoxy-2,2-dimethylpropyl)-[1,1′-biphenyl]-4-yl)methoxy)pyridin-4-yl)propyl)(methyl)phosphinic acid or ((S)-2-(2-((2′-fluoro-5′-methoxy-2-((S)-1-methoxy-2,2-dimethylpropyl)-[1,1′-biphenyl]-4-yl)methoxy)pyridin-4-yl)propyl)(methyl)phosphinic acid] belongs no more than 50 nM; to `COc1cc(-c2ccc(COc3cccc(C(CS(=O)(=O)O)C4CC4)c3)cc2CN(C(C)C)C(C)C)c(F)cn1` (centres unmarked) [Compound 1, 2-cyclopropyl-2-(3-((3-((diisopropylamino)methyl)-4-(5-fluoro-2-methoxypyridin-4-yl)benzyl)oxy)phenyl)ethanesulfonic acid], greater than 1000 nM. `CCP(=O)(O)CC(c1cccc(OCc2ccc(-c3cc(OC)ncc3F)c(CN(C(C)C)C(C)C)c2)c1)C1CC1` (single isomer, unassigned) [Compound 19, (2-cyclopropyl-2-(3-((3-((diisopropylamino)methyl)-4-(5-fluoro-2-methoxypyridin-4-yl)benzyl)oxy)phenyl)ethyl)(ethyl)phosphinic acid] returned an EC50 greater than 1000 nM. In the case of `COc1cc(-c2ccc(COc3cccc(C(C4CC4)C(C)P(=O)(O)O)c3)cc2CN(C(C)C)C(C)C)c(F)cn1` (centres unmarked) [Compound 6, (1-cyclopropyl-1-(3-((3-((diisopropylamino)methyl)-4-(5-fluoro-2-methoxypyridin-4-yl)benzyl)oxy)phenyl)propan-2-yl)phosphonic acid], the EC50 is greater than 1000 nM. For the compound `COc1cc(-c2ccc(COc3cccc(C(CP(C)(=O)O)C4CC4)c3)cc2CN(C(C)C)C(C)C)c(F)cn1` (single isomer, unassigned) [Compound 10, (2-cyclopropyl-2-(3-((3-((diisopropylamino)methyl)-4-(5-fluoro-2-methoxypyridin-4-yl)benzyl)oxy)phenyl)ethyl)(methyl)phosphinic acid], the concentration for a half-maximal effect (EC50) fell in the range of 50 to 250 nM.

For `COc1ccc(F)c(-c2ccc(COc3cccc(C(C)CP(C)(=O)O)c3)cc2[C@@H](OC)C(C)(C)C)c1` (single isomer, unassigned) [Compound 32], the EC50 is no more than 50 nM. For `COc1ccc(F)c(-c2ccc(COc3cccc(C(C)CP(C)(=O)O)c3)cc2[C@@H](OC)C(C)(C)C)c1` (single isomer, unassigned) [Compound 33], the EC50 was no more than 50 nM. Take `COc1cc(-c2ccc(COc3cccc(C(C)CP(C)(=O)O)c3)cc2CN(C(C)C)C(C)C)c(F)cn1` (single isomer, unassigned) [Compound 36, (2-(3-((3-((diisopropylamino)methyl)-4-(5-fluoro-2-methoxypyridin-4-yl)benzyl)oxy)phenyl)propyl)(methyl)phosphinic acid]: the EC50 was greater than 1000 nM. To `COc1cc(-c2ccc(OCc3cccc(C(CP(=O)(O)O)C4CC4)c3)cc2CN(C(C)C)C(C)C)c(F)cn1` (centres unmarked) [Compound 9, (2-cyclopropyl-2-(3-((3-((diisopropylamino)methyl)-4-(5-fluoro-2-methoxypyridin-4-yl)phenoxy)methyl)phenyl)ethyl)phosphonic acid] belongs greater than 1000 nM; to `COc1cc(-c2ccc(COc3cc([C@@H](CP(C)(=O)O)C4CC4)ccn3)cc2[C@@H](OC)C(C)(C)C)c(F)cn1` [Compound 28, ((S)-2-cyclopropyl-2-(2-((4-(5-fluoro-2-methoxypyridin-4-yl)-3-((S)-1-methoxy-2,2-dimethylpropyl)benzyl)oxy)pyridin-4-yl)ethyl)(methyl)phosphinic acid], no more than 50 nM.

As for `COc1cc(-c2ccc(COc3cccc(C(C4CC4)C(C)P(=O)(O)OC)c3)cc2CN(C(C)C)C(C)C)c(F)cn1` (centres unmarked) [Compound 7, methyl hydrogen (1-cyclopropyl-1-(3-((3-((diisopropylamino)methyl)-4-(5-fluoro-2-methoxypyridin-4-yl)benzyl)oxy)phenyl)propan-2-yl)phosphonate], the EC50 is greater than 1000 nM. The compound `COc1cc(-c2ccc(COc3cccc(C(CS(=O)(=O)O)C4CC4)c3)cc2CN(C(C)C)C(C)C)c(F)cn1` (single isomer, unassigned) [Compound 15, 2-cyclopropyl-2-(3-((3-((diisopropylamino)methyl)-4-(5-fluoro-2-methoxypyridin-4-yl)benzyl)oxy)phenyl)ethanesulfonic acid] came in with an EC50 greater than 1000 nM. The value for `CO[C@H](c1cc(COc2cccc([C@@H](CP(C)(=O)O)C3CC3)c2)ccc1-c1cc(O)ccc1F)C(C)(C)C` [Compound 26, ((S)-2-cyclopropyl-2-(3-((2′-fluoro-5′-hydroxy-2-((S)-1-methoxy-2,2-dimethylpropyl)-[1,1′-biphenyl]-4-yl)methoxy)phenyl)ethyl)(methyl)phosphinic acid] was no more than 50 nM.

On to `COc1cc(-c2ccc(OCc3cccc(C(CP(C)(=O)O)C4CC4)c3)cc2CN(C(C)C)C(C)C)c(F)cn1` (centres unmarked) [Compound 21, (2-cyclopropyl-2-(3-((3-((diisopropylamino)methyl)-4-(5-fluoro-2-methoxypyridin-4-yl)phenoxy)methyl)phenyl)ethyl)(methyl)phosphinic acid], for which the EC50 fell in the range of 50 to 250 nM. `CCP(=O)(O)CC(c1cccc(OCc2ccc(-c3cc(OC)ncc3F)c(CN(C(C)C)C(C)C)c2)c1)C1CC1` (single isomer, unassigned) [Compound 20, (2-cyclopropyl-2-(3-((3-((diisopropylamino)methyl)-4-(5-fluoro-2-methoxypyridin-4-yl)benzyl)oxy)phenyl)ethyl)(ethyl)phosphinic acid] yielded an EC50 greater than 1000 nM. `COc1cc(-c2ccc(COc3cccc(C(CP(C)(=O)O)C4CC4)c3)cc2CN(C(C)C)C(C)C)c(F)cn1` (single isomer, unassigned) [Compound 12, (2-cyclopropyl-2-(3-((3-((diisopropylamino)methyl)-4-(5-fluoro-2-methoxypyridin-4-yl)benzyl)oxy)phenyl)ethyl)(methyl)phosphinic acid]: the EC50 was greater than 1000 nM.
